Measurements: ChEMBL document CHEMBL1201862, “PubChem BioAssay data set” (2004)
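Where inhibition never reached the appropriate level, the endpoint shown equals the highest concentration tested. Otherwise, values were interpolated linearly from a five-concentration, 48-hour dose response in 96-well plates. Abbreviation: GI50, concentration required for 50% inhibition of growth.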 Active and inactive are the calls of the source. No stated cut-off is given here; in the data, active = GI50 up to about 1.1 µM and inactive = higher.

Assays:
Assay in all cases: NCI anticancer screen, dose series, 48 h
[1] = system: NCI-H226
[2] = system: NCI-H460
[3] = system: OVCAR-3
[4] = system: COLO 205
[5] = system: HOP-62
[6] = system: TK-10
[7] = system: SW-620
[8] = system: NCI/ADR-RES
[9] = system: SR
[10] = system: A498
[11] = system: HOP-92
[12] = system: SK-OV-3
[13] = system: IGROV-1
[14] = system: EKVX
[15] = system: LOX IMVI
[16] = system: HT-29
[17] = system: SN12C
[18] = system: SF-268
[19] = system: KM-20L2
[20] = system: SNB-78

Compound	GI50 [1]	GI50 [2]	GI50 [3]	GI50 [4]	GI50 [5]	GI50 [6]	GI50 [7]	GI50 [8]	GI50 [9]	GI50 [10]	GI50 [11]	GI50 [12]	GI50 [13]	GI50 [14]	GI50 [15]	GI50 [16]	GI50 [17]	GI50 [18]	GI50 [19]	GI50 [20]
O=c1c(-c2ccccc2)c(SCCCN2CCCCC2)n(-c2ccccc2)c(=S)n1-c1ccccc1	15.3 µM (inactive)	16.4 µM (inactive)	18.2 µM (inactive)	17.6 µM (inactive)	17.8 µM (inactive)	16.9 µM (inactive)	19.6 µM (inactive)	16.5 µM (inactive)	16.2 µM (inactive)	15.1 µM (inactive)	12.1 µM (inactive)	19.8 µM (inactive)	17.9 µM (inactive)	> 100 µM (inactive)	16.3 µM (inactive)					
FC(F)(F)C(C1=NC(C(F)(F)F)(C(F)(F)F)N=C(N2CCOCC2)O1)C(F)(F)F		29 µM (inactive)	25.5 µM (inactive)	14.3 µM (inactive)		28.7 µM (inactive)	14.2 µM (inactive)	16.6 µM (inactive)	18.8 µM (inactive)		25.8 µM (inactive)	31.3 µM (inactive)	19.6 µM (inactive)	17.1 µM (inactive)	17.8 µM (inactive)	18.7 µM (inactive)	11.1 µM (inactive)	36.1 µM (inactive)		
CCOC(=O)CSc1c(C(=O)OCC)c(=O)n(-c2ccccc2)c(=S)n1-c1ccccc1	36.5 µM (inactive)	21.6 µM (inactive)	> 100 µM (inactive)	65.8 µM (inactive)	> 100 µM (inactive)	> 100 µM (inactive)	9.42 µM (inactive)	2.99 µM (inactive)	13.7 µM (inactive)		0.0371 µM (active)	89.5 µM (inactive)	20.5 µM (inactive)	62.8 µM (inactive)	15.6 µM (inactive)	54.3 µM (inactive)	29.6 µM (inactive)	> 100 µM (inactive)		
CC(=O)OCC1OC(n2c(-c3ccc(Cl)cc3)cc(-c3ccccc3)c(C#N)c2=S)C(OC(C)=O)C(OC(C)=O)C1OC(C)=O (configuration not stated)	4.28 µM (inactive)	5.78 µM (inactive)	10.6 µM (inactive)	13.2 µM (inactive)	7.85 µM (inactive)	27.4 µM (inactive)	3.3 µM (inactive)	6.71 µM (inactive)	10.7 µM (inactive)		19.6 µM (inactive)	12.6 µM (inactive)	13.1 µM (inactive)	17.7 µM (inactive)	4.29 µM (inactive)	7.06 µM (inactive)	11.2 µM (inactive)	10.8 µM (inactive)		
N#CC1(CCCI)CCCC1		2.92 µM (inactive)	16 µM (inactive)	27.8 µM (inactive)		41.9 µM (inactive)	10.7 µM (inactive)		15.4 µM (inactive)	35.9 µM (inactive)	15.6 µM (inactive)	64.4 µM (inactive)	> 100 µM (inactive)	47.4 µM (inactive)	3.76 µM (inactive)	15.2 µM (inactive)	12.3 µM (inactive)	12.6 µM (inactive)	22.6 µM (inactive)	20.1 µM (inactive)
N#Cc1c(-c2ccccc2)cn(C(=O)c2ccccc2)c1N	> 100 µM (inactive)		> 100 µM (inactive)	> 100 µM (inactive)	> 100 µM (inactive)	> 100 µM (inactive)	> 100 µM (inactive)	> 100 µM (inactive)	> 100 µM (inactive)		> 100 µM (inactive)	> 100 µM (inactive)	> 100 µM (inactive)	> 100 µM (inactive)	> 100 µM (inactive)	> 100 µM (inactive)	> 100 µM (inactive)	> 100 µM (inactive)		
CCOC(=O)Nc1ccc(S(=O)(=O)NCCCl)cc1.CCOC(=O)Nc1ccc(S(=O)(=O)NCCCl)cc1.O=C(O)c1ccc(/N=N/Cl)cc1O	> 100 µM (inactive)		> 100 µM (inactive)	> 100 µM (inactive)	> 100 µM (inactive)	> 100 µM (inactive)	> 100 µM (inactive)		> 100 µM (inactive)	> 100 µM (inactive)	> 100 µM (inactive)	> 100 µM (inactive)	> 100 µM (inactive)	> 100 µM (inactive)		> 100 µM (inactive)	> 100 µM (inactive)	> 100 µM (inactive)	> 100 µM (inactive)	> 100 µM (inactive)
C=CCNC(=S)N/N=C1\C(=O)Nc2ccc([N+](=O)[O-])cc21	> 100 µM (inactive)	16.6 µM (inactive)	69.2 µM (inactive)	92 µM (inactive)	> 100 µM (inactive)	26.4 µM (inactive)	82 µM (inactive)	17.7 µM (inactive)	10.3 µM (inactive)	21.1 µM (inactive)	44.2 µM (inactive)	34 µM (inactive)	23.3 µM (inactive)	42.2 µM (inactive)	81.8 µM (inactive)	68.7 µM (inactive)	35.5 µM (inactive)	57 µM (inactive)		
